From ChEMBL document CHEMBL4616581, “Current scenario of artemisinin and its analogues for antimalarial activity” (Eur J Med Chem, 2019)

Assays:
Format in all cases: functional, organism-based
[1] = tested on: Plasmodium falciparum; test: Antimalarial activity against Plasmodium falciparum K1 after 48 hrs by [3H]hypoxanthine incorporation assay
[2] = tested on: Plasmodium falciparum; test: Antimalarial activity against Plasmodium falciparum HB3 after 48 hrs by [3H]hypoxanthine incorporation assay
[3] = tested on: Plasmodium falciparum; test: Antimalarial activity against chloroquine-resistant Plasmodium falciparum K1 after 72 hrs by SYBR green dye-based spectrofluorometer analysis; settings: K1, 72 h
[4] = tested on: Plasmodium falciparum; test: Antimalarial activity against chloroquine-sensitive Plasmodium falciparum 3D7 after 72 hrs by SYBR green dye-based spectrofluorometer analysis; settings: 3D7, 72 h
[5] = tested on: Plasmodium falciparum; test: Antimalarial activity against chloroquine-sensitive Plasmodium falciparum NF54
[6] = tested on: Plasmodium falciparum; test: Antimalarial activity against Plasmodium falciparum W2 after 48 hrs by in presence of [3H]hypoxanthine
[7] = tested on: Plasmodium falciparum; test: Antimalarial activity against Plasmodium falciparum D6 after 48 hrs by in presence of [3H]hypoxanthine
[8] = tested on: Plasmodium falciparum; test: Antimalarial activity against Plasmodium falciparum K1
[9] = tested on: Plasmodium falciparum; test: Antimalarial activity against Plasmodium falciparum HB3
[10] = tested on: Plasmodium falciparum; test: Antimalarial activity against Plasmodium falciparum HB3 after 48 hrs by [3H]-hypoxanthine incorporation assay
[11] = tested on: Plasmodium falciparum; test: Antimalarial activity against chloroquine-resistant Plasmodium falciparum K1 after 48 hrs by [3H]-hypoxanthine incorporation assay
[12] = tested on: Plasmodium falciparum; test: Antimalarial activity against Plasmodium falciparum K1 by [3H]-hypoxanthine incorporation assay
[13] = tested on: Plasmodium falciparum; test: Antimalarial activity against blood stages of chloroquine-resistant Plasmodium falciparum K1
[14] = tested on: Plasmodium falciparum; test: Antimalarial activity against Plasmodium falciparum 3D7 after 72 hrs by SYBR green dye-based assay; settings: 3D7, 72 h
[15] = tested on: Plasmodium falciparum; test: Antimalarial activity against Plasmodium falciparum NF54
[16] = tested on: Plasmodium falciparum; test: Antimalarial activity against blood stages of chloroquine-sensitive Plasmodium falciparum 3D7

Work on `C[C@H]1[C@@H](Oc2ccc(C(F)(F)F)cc2)O[C@@H]2O[C@]3(C)CC[C@H]4[C@H](C)CC[C@@H]1[C@@]24OO3` yielded an IC50 [1] of 5.92 nM.
Work on `C[C@H]1[C@@H](Oc2cccc3ccccc23)O[C@@H]2O[C@]3(C)CC[C@H]4[C@H](C)CC[C@@H]1[C@@]24OO3` yielded an IC50 [1] of 8.89 nM and an IC50 [2] of 7.06 nM.
`CCC(=O)OC1O[C@@H]2O[C@]3(C)CC[C@H]4[C@H](C)CC[C@@H]([C@H]1C)[C@@]24OO3` (stereo partly specified) was tested, and the EC50 [3] was 0.3 nM and the EC50 [4] was 3.1 nM.
In the case of `C[C@@H]1CC[C@H]2[C@@H](C)C(CC(=O)c3ccc(C(=O)CC4O[C@@H]5O[C@]6(C)CC[C@H]7[C@H](C)CC[C@@H]([C@H]4C)[C@@]57OO6)cc3)O[C@@H]3O[C@]4(C)CC[C@@H]1[C@]32OO4` (stereo partly specified), the IC50 [5] is reported as 1.9 nM.
`CCOC(=O)CC[C@@H](O[C@H]1O[C@@H]2O[C@]3(C)CC[C@H]4[C@H](C)CC[C@@H]([C@H]1C)[C@@]24OO3)c1ccccc1` showed an IC50 [6] of 0.213 ng/mL and an IC50 [7] of 0.496 ng/mL.
`CCOC(=O)CC[C@@H](O[C@H]1O[C@@H]2O[C@]3(C)CC[C@H]4[C@H](C)CC[C@@H]([C@H]1C)[C@@]24OO3)c1ccc([N+](=O)[O-])cc1` showed an IC50 [6] of 0.23 ng/mL and an IC50 [7] of 0.563 ng/mL.
With `CCNCCO[C@H]1O[C@@H]2O[C@]3(C)CC[C@H]4[C@H](C)CC[C@@H]([C@H]1C)[C@@]24OO3` the IC50 [8] was 4.1 nM and the IC50 [9] was 4.1 nM.
Work on `CC(C)CNCCOC1O[C@@H]2O[C@]3(C)CC[C@H]4[C@H](C)CC[C@@H]([C@H]1C)[C@@]24OO3` (stereo partly specified) yielded an EC50 [3] of 2.4 nM and an EC50 [4] of 6.8 nM.
For `COP(=O)(OCC[C@H]1O[C@@H]2O[C@]3(C)CC[C@H]4[C@H](C)CC[C@@H]([C@H]1C)[C@@]24OO3)OCC[C@H]1O[C@@H]2O[C@]3(C)CC[C@H]4[C@H](C)CC[C@@H]([C@H]1C)[C@@]24OO3`, the IC50 [10] was 0.09 nM and the IC50 [11] was 0.2 nM.
Compound `CC1CCC2C(CCCCCCC[C@]3(C[C@@H]4C(=O)O[C@@H]5O[C@]6(C)CC[C@H]7[C@H](C)CC[C@@H]4[C@@]57OO6)C(=O)O[C@@H]4O[C@]5(C)CC[C@H]6[C@H](C)CC[C@@H]3[C@@]46OO5)C(O)OC3OC4(C)CCC1C32OO4` (stereo partly specified) has an EC50 [12] of 3.1 nM.
Work on `C[C@@H]1CC[C@H]2[C@@H](C)C(CC(=O)c3cccc(C(=O)CC4O[C@@H]5O[C@]6(C)CC[C@H]7[C@H](C)CC[C@@H]([C@H]4C)[C@@]57OO6)c3)O[C@@H]3O[C@]4(C)CC[C@@H]1[C@]32OO4` (stereo partly specified) yielded an IC50 [5] of 1.9 nM.
For `CO[C@H]1O[C@@H]2C[C@]3(C)CC[C@H]4[C@H](C)CC[C@@H]([C@H]1C)[C@@]24OO3`, the IC50 [13] was 0.301 ng/mL.
Work on `C[C@@H]1CC[C@H]2[C@@H](C)C(OC(=O)Cc3ccccc3)O[C@@H]3O[C@]4(C)CC[C@@H]1[C@]32OO4` (stereo partly specified) yielded an EC50 [3] of 0.5 nM and an EC50 [4] of 2.4 nM.
For `CCOC(=O)CC[C@H](O[C@H]1O[C@@H]2O[C@]3(C)CC[C@H]4[C@H](C)CC[C@@H]([C@H]1C)[C@@]24OO3)c1ccccc1`, the IC50 [6] was 0.144 ng/mL and the IC50 [7] was 0.459 ng/mL.
In the case of `C[C@H]1[C@H](OC(=O)CCC(=O)Nc2ccc3ncnc(Nc4ccc(Cl)c(Cl)c4)c3c2)O[C@@H]2O[C@]3(C)CC[C@H]4[C@H](C)CC[C@@H]1[C@@]24OO3`, the EC50 [14] is reported as 1.4 nM.
`CC1=C(/C=C/c2ccccc2)O[C@@H]2O[C@]3(C)CC[C@H]4[C@H](C)CC[C@@H]1[C@@]24OO3` gave an IC50 [15] of 16 nM.
In the case of `C[C@H]1[C@H](Oc2cccc3ccccc23)O[C@@H]2O[C@]3(C)CC[C@H]4[C@H](C)CC[C@@H]1[C@@]24OO3`, the IC50 [1] is reported as 2.88 nM and the IC50 [2] is reported as 2.88 nM.
With `COc1cc(OC)c(C2O[C@@H]3O[C@]4(C)CC[C@H]5[C@H](C)CC[C@@H]([C@H]2C)[C@@]35OO4)cc1C1O[C@@H]2O[C@]3(C)CC[C@H]4[C@H](C)CC[C@@H]([C@H]1C)[C@@]24OO3` (stereo partly specified) the IC50 [5] was 1.3 nM.
Work on `C[C@H]1[C@@H](OCc2ccc(C(=O)O)cc2)O[C@@H]2C[C@]3(C)CC[C@H]4[C@H](C)CC[C@@H]1[C@@]24OO3` yielded an IC50 [13] of 1.38 ng/mL.
`C=CC1=C(C)[C@@H]2CC[C@@H](C)[C@@H]3CC[C@]4(C)OO[C@@]23[C@H](O1)O4` gave an IC50 [15] of 28 nM.
`CCO[C@H]1O[C@@H]2C[C@]3(C)CC[C@H]4[C@H](C)CC[C@@H]([C@H]1C)[C@@]24OO3` was tested, and the IC50 [13] was 12.8 nM.
In the case of `C[C@@H]1CC[C@H]2[C@H](C[C@@]3(CCCCCCC4C(=O)O[C@@H]5O[C@]6(C)CC[C@H]7[C@H](C)CC[C@@H]4[C@@]57OO6)C(=O)O[C@@H]4O[C@]5(C)CC[C@H]6[C@H](C)CC[C@@H]3[C@@]46OO5)C(=O)O[C@@H]3O[C@]4(C)CC[C@@H]1[C@]32OO4` (stereo partly specified), the EC50 [12] is reported as 2.4 nM.
For `C[C@@H]1CC[C@H]2[C@H](C[C@@]3(CCCCCCC[C@]4(C[C@H]5C(=O)O[C@@H]6O[C@]7(C)CC[C@H]8[C@H](C)CC[C@@H]5[C@@]68OO7)C(=O)O[C@@H]5O[C@]6(C)CC[C@H]7[C@H](C)CC[C@@H]4[C@@]57OO6)C(=O)O[C@@H]4O[C@]5(C)CC[C@H]6[C@H](C)CC[C@@H]3[C@@]46OO5)C(=O)O[C@@H]3O[C@]4(C)CC[C@@H]1[C@]32OO4`, the EC50 [12] was 20 nM.
In the case of `C[C@H]1[C@H](OC(=O)CCC(=O)Oc2ccc(Nc3ncnc4ccccc34)cc2)O[C@@H]2O[C@]3(C)CC[C@H]4[C@H](C)CC[C@@H]1[C@@]24OO3`, the EC50 [14] is reported as 3.8 nM.
`CC1=C(/C=C\c2ccccc2)O[C@@H]2O[C@]3(C)CC[C@H]4[C@H](C)CC[C@@H]1[C@@]24OO3` was tested, and the IC50 [15] was 8.1 nM.
Work on `C[C@@H]1CC[C@H]2[C@H](C[C@@]3(CCCCCC[C@]4(C[C@H]5C(=O)O[C@@H]6O[C@]7(C)CC[C@H]8[C@H](C)CC[C@@H]5[C@@]68OO7)C(=O)O[C@@H]5O[C@]6(C)CC[C@H]7[C@H](C)CC[C@@H]4[C@@]57OO6)C(=O)O[C@@H]4O[C@]5(C)CC[C@H]6[C@H](C)CC[C@@H]3[C@@]46OO5)C(=O)O[C@@H]3O[C@]4(C)CC[C@@H]1[C@]32OO4` yielded an EC50 [12] of 5.8 nM.
Compound `C[C@H]1[C@@H](CCOP(=O)(OCC[C@H]2O[C@@H]3O[C@]4(C)CC[C@H]5[C@H](C)CC[C@@H]([C@H]2C)[C@@]35OO4)Oc2ccccc2)O[C@@H]2O[C@]3(C)CC[C@H]4[C@H](C)CC[C@@H]1[C@@]24OO3` has an IC50 [10] of 0.18 nM and an IC50 [11] of 0.5 nM.
`C[C@@H]1CC[C@H]2[C@@H](C)C(O)O[C@@H]3C[C@]4(C)CC[C@@H]1[C@]32OO4` (stereo partly specified) showed an IC50 [13] of 0.69 ng/mL.
With `C[C@@H]1CC[C@H]2[C@@H](C)C(=O)O[C@@H]3O[C@@]4(C)CC[C@@H]1[C@]32OO4` [ARTEMISININ] the IC50 [13] was 0.68 ng/mL and the EC50 [16] was 12.1 nM.
